US12150995B2, “IRAK degraders and uses thereof” (Kymera Therapeutics, Inc., priority 2020, dated 2024)

Target: T1, IRAK4 (Homo sapiens, UniProt Q9NWZ3)
T1 construct: endogenous in cells; host or cells: OCI-LY10
T1 sequence (Q9NWZ3 1-460): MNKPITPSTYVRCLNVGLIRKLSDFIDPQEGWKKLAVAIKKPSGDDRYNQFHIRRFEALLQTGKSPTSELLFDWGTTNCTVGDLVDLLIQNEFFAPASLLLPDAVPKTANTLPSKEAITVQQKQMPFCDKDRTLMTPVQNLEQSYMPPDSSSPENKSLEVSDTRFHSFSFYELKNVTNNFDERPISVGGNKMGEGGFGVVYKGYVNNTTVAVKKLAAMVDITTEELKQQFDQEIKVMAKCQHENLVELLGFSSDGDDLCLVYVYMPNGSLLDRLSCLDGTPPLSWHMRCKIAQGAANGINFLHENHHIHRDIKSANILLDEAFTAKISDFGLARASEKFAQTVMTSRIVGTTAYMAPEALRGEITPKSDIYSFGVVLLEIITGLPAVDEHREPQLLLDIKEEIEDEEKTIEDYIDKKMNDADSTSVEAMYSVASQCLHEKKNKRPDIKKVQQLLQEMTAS
Assay: IRAK4 MSD Degradation in OCI-LY10
Type: cell-based
Conditions: OCI-LY10 cells, Meso Scale Discovery, incubated 4 to 24 hours
Procedure: Degradation of IRAK4 in OCI-LY10 was quantitatively measured using Meso Scale Discovery technology. OCI-LY10 cells were seeded in 96-well plates (Corning 3799) with a density of 300,000 cells per well in 100 μL fresh media. Compounds were then added to the assay plates with a final top concentration of 1 to 10 μM in a 1:3 dilution series with total of 8 doses. The assay plates were then incubated for 4 to 24 hours at 37° C. under 5% CO2. The assay plates were then centrifuged for 5 minutes and the cell pellets were treated with 100 μL/well RIPA lysis buffer (Boston BioProducts BP-115D) with proteinase inhibitors. To prepare MSD assay plates (Meso Scale Discovery Catalog number L15XA-3), the plates were coated with 2 μg/mL capture antibody (mouse Anti-IRAK4 antibody [2H9], ab119942) in PBS, at 40 μL/well. The plates were then incubated overnight at 4° C., washed 3 times with 150 μL/well TBST buffer (Cell Signaling Technology, Catalog number 9997S) and blocked with 150 μL/well blocking buffer (Meso Scale Discovery Catalog number R93BA-4). Cell lysates were then added to MSD assay plates and the plates were incubated at room temperature for 1 hour. The plates were then washed 3 times with 150 μL/well TBST buffer and […] primary detection antibody (rabbit Anti-IRAK4 antibody [Y279], from Abcam. Catalog number ab32511, 1 μg/mL). The assay plates were then incubated at room temperature for 1 hour, washed 3 times with 150 μL/well TBST buffer and 254/well secondary detection antibody, SULFO-TAG anti-rabbit antibody were added (anti rabbit antibody from Meso Scale Discovery, Catalog number R32AB-1, 1 μg/mL). The assay plates were then incubated at room temperature for 1 hour, washed 3 times with 150 μL/well TBST buffer, and 150 μL/well MSD reading buffer (Meso Scale Discovery catalog number R92TC-2) was added. The plates were then analyzed by a MSD reader (Meso Scale Discovery, Model Quick Plex SQ 120). The data was then analyzed by software Prism 7.0 from GraphPad and the dose-depended IRAK4 degradation were fit using a three-parameter logistic equation to calculate DC50.
The letter codes for IRAK4 DC50 include: A (<0.01 μM); B (0.01-0.05 μM); C (0.05-0.1 μM); D (0.1-0.2 μM); and E (>0.2 μM).

| Structure (SMILES) | DC50 [nM] |
| --- | --- |
| CN(C[C@H]1CC[C@H](n2cc3cc(NC(=O)c4cccc(C(F)(F)F)n4)ccc3n2)CC1)C1CCN(c2cccc3c2n(C)c(=O)n3C2CCC(=O)NC2=O)CC1 (stereo partly drawn) [I-58] | < 10 |
| CN(C[C@H]1CC[C@H](c2cc3cc(NC(=O)c4cccc(C(F)(F)F)n4)c(F)cc3n2C)CC1)C1CCN(c2cccc3c2n(C)c(=O)n3C2CCC(=O)NC2=O)CC1 (stereo partly drawn) [I-59] | > 200 |
| Cc1nc(C(=O)Nc2cc3cn([C@H]4CC[C@H](CN5CCC(c6cccc7c6n(C)c(=O)n7C6CCC(=O)N(C)C6=O)CC5)CC4)nc3cc2C(C)(C)O)co1 (stereo partly drawn) [I-60] | > 200 |
| Cc1nc(C(=O)Nc2cc3cn([C@H]4CC[C@H](CN(C)C5CCN(c6cccc7c6n(C)c(=O)n7C6CCC(=O)N(C)C6=O)CC5)CC4)nc3cc2C(C)(C)O)co1 (stereo partly drawn) [I-61] | > 200 |
| Cn1c(=O)n(C2CCC(=O)NC2=O)c2cccc(C3CCN(C[C@H]4CC[C@H](n5cc6cc(NC(=O)c7cccc(C(F)(F)F)n7)ncc6n5)CC4)CC3)c21 (stereo partly drawn) [I-62] | < 10 |
| Cn1c(=O)n(C2CCC(=O)NC2=O)c2cccc(C3CCN(C[C@H]4CC[C@H](n5cc6cc(NC(=O)c7cnn8cccnc78)c(F)cc6n5)CC4)CC3)c21 (stereo partly drawn) [I-63] | < 10 |
| CC(C)(O)c1cc2nn([C@H]3CC[C@H](CN4CCC(c5ccc6c(N7CCC(=O)NC7=O)cncc6c5)CC4)CC3)cc2cc1NC(=O)c1cccc(C(F)(F)F)n1 [I-64] | < 10 |
| CN(C[C@H]1CC[C@H](n2cc3cc(NC(=O)c4cccc(C(F)(F)F)n4)c(C(C)(C)O)cc3n2)CC1)C1CCN(c2ccc3c(N4CCC(=O)NC4=O)cncc3c2)CC1 [I-65] | < 10 |
| CN(C[C@H]1CC[C@H](n2cc3cc(NC(=O)c4cccc(C(F)(F)F)n4)c(C(C)(C)O)cc3n2)CC1)C1CCN(c2cccc3c(N4CCC(=O)NC4=O)cncc23)CC1 [I-66] | < 10 |
| Cc1ccc2c(c1C1CCN(C[C@H]3CC[C@H](n4cc5cc(NC(=O)c6cccc(C(F)(F)F)n6)c(F)cc5n4)CC3)CC1)n(C)c(=O)n2C1CCC(=O)NC1=O (stereo partly drawn) [I-67] | 10 to 50 |
| O=C1CCN(c2cncc3c(C4CCN(C[C@H]5CC[C@H](n6cc7cc(NC(=O)c8cccc(C(F)(F)F)n8)ccc7n6)CC5)CC4)cccc23)C(=O)N1 [I-68] | 10 to 50 |
| Cn1c(=O)n(C2CCC(=O)NC2=O)c2cccc(C3CCN(C[C@H]4CC[C@H](n5cc6cc(NC(=O)c7cccc(C(F)(F)F)n7)c(C7CC7)cc6n5)CC4)CC3)c21 (stereo partly drawn) [I-69] | < 10 |
| Cc1cc2nn([C@H]3CC[C@H](CN4CCC(c5cccc6c5n(C)c(=O)n6C5CCC(=O)NC5=O)CC4)CC3)cc2cc1NC(=O)c1cccc(C(F)(F)F)n1 (stereo partly drawn) [I-70] | < 10 |
| COc1cc2nn([C@H]3CC[C@H](CN(C)C4CCN(c5cccc6c5n(C)c(=O)n6C5CCC(=O)NC5=O)CC4)CC3)cc2cc1NC(=O)c1cncc(C#N)c1 (stereo partly drawn) [I-71, 5-cyano-N-[2-[4-[[[1-[1-(2,6-dioxo-3-piperidyl)-3-methyl-2-oxo-benzimidazol-4-yl]-4-piperidyl]-methyl-amino]methyl]cyclohexyl]-6-methoxy-indazol-5-yl]pyridine-3-carboxamide] | < 10 |
| Cn1c(=O)n(C2CCC(=O)NC2=O)c2cc(Cl)cc(C3CCN(C[C@H]4CC[C@H](n5cc6cc(NC(=O)c7cccc(C(F)(F)F)n7)c(F)cc6n5)CC4)CC3)c21 (stereo partly drawn) [I-72] | 10 to 50 |
| Cc1ccc2c(c1C1CCN(C[C@H]3CC[C@H](n4cc5cc(NC(=O)c6cccc(C(F)(F)F)n6)c(Cl)cc5n4)CC3)CC1)n(C)c(=O)n2C1CCC(=O)NC1=O (stereo partly drawn) [I-73] | 10 to 50 |
| Cn1c(=O)n(C2CCC(=O)NC2=O)c2ccc(F)c(C3CCN(C[C@H]4CC[C@H](n5cc6cc(NC(=O)c7cccc(C(F)(F)F)n7)ccc6n5)CC4)CC3)c21 (stereo partly drawn) [I-74] | 10 to 50 |
| COc1ccc2c(c1C1CCN(C[C@H]3CC[C@H](n4cc5cc(NC(=O)c6cccc(C(F)(F)F)n6)ccc5n4)CC3)CC1)n(C)c(=O)n2C1CCC(=O)NC1=O (stereo partly drawn) [I-75] | 10 to 50 |

| Structure (SMILES) | DC50 [nM] |
| --- | --- |
| Cn1c(=O)n(C2CCC(=O)NC2=O)c2cccc(C3CCN(C[C@H]4CC[C@H](n5cc6cc(NC(=O)c7cccc(C(F)(F)F)n7)c(C(F)(F)F)cc6n5)CC4)CC3)c21 (stereo partly drawn) [I-76] | 10 to 50 |
| COc1cc2nn([C@H]3CC[C@H](CN4CCC(c5cccc6c5n(C)c(=O)n6C5CCC(=O)NC5=O)CC4)CC3)cc2cc1NC(=O)c1cncc(C#N)c1 (stereo partly drawn) [I-77] | < 10 |
| CC(C)(O)c1cc2nn([C@H]3CC[C@H](CN4CCC(c5cccc6c(N7CCC(=O)NC7=O)cncc56)CC4)CC3)cc2cc1NC(=O)c1cccc(C(F)(F)F)n1 [I-78, N-[2-[4-[[4-[4-(2,4-dioxohexahydropyrimidin-1-yl)-8-isoquinolyl]-1-piperidyl]methyl]cyclohexyl]-6-(1-hydroxy-1-methyl-ethyl)indazol-5-yl]-6-(trifluoromethyl)pyridine-2-carboxamide] | < 10 |
| CN(C[C@H]1CC[C@H](n2cc3cc(NC(=O)c4cccc(C(F)(F)F)n4)ncc3n2)CC1)C1CCN(c2cccc3c(N4CCC(=O)NC4=O)cncc23)CC1 [I-79] | > 200 |
| COc1cc2nn([C@H]3CC[C@H](CN(C)C4CCN(c5cccc6c5n(C)c(=O)n6C5CCC(=O)NC5=O)CC4)CC3)cc2cc1NC(=O)c1cncc(Cl)c1 (stereo partly drawn) [I-80] | < 10 |
| COc1cc2nn([C@H]3CC[C@H](CN(C)C4CCN(c5cccc6c5n(C)c(=O)n6C5CCC(=O)NC5=O)CC4)CC3)cc2cc1NC(=O)c1cncc(F)c1 (stereo partly drawn) [I-81] | < 10 |
| Cn1c(=O)n(C2CCC(=O)NC2=O)c2ccc(F)c(C3CCN(C[C@H]4CC[C@H](n5cc6cc(NC(=O)c7cccc(C(F)(F)F)n7)ncc6n5)CC4)CC3)c21 (stereo partly drawn) [I-82] | < 10 |
| COc1ccc2c(c1C1CCN(C[C@H]3CC[C@H](n4cc5cc(NC(=O)c6cccc(C(F)(F)F)n6)ncc5n4)CC3)CC1)n(C)c(=O)n2C1CCC(=O)NC1=O (stereo partly drawn) [I-83] | < 10 |
| CC(C)Nc1cc(-n2ccc3cc(C#N)cnc32)ncc1C(=O)NC[C@H]1CC[C@H](CN(C)C2CCN(c3cccc4c3n(C)c(=O)n4C3CCC(=O)NC3=O)CC2)CC1 (stereo partly drawn) [I-84] | 50 to 100 |
| CC(C)Nc1cc(-n2ccc3cc(C#N)cnc32)ncc1C(=O)NC[C@H]1CC[C@H](CN2CCC(c3cccc4c3n(C)c(=O)n4C3CCC(=O)NC3=O)CC2)CC1 (stereo partly drawn) [I-85] | 50 to 100 |
| COc1cc2nn([C@H]3CC[C@H](CN4CCC(c5cccc6c5n(C)c(=O)n6C5CCC(=O)NC5=O)CC4)CC3)cc2cc1NC(=O)c1cncc(C(F)(F)F)c1 (stereo partly drawn) [I-86] | < 10 |
| COc1cc2nn([C@H]3C[C@H](CN4CCC(c5c(Cl)ccc6c5n(C)c(=O)n6C5CCC(=O)NC5=O)CC4)C3)cc2cc1NC(=O)c1cccc(C(F)(F)F)n1 (stereo partly drawn) [I-87, N-[2-[3-[[4-[5-chloro-1-(2,6-dioxo-3-piperidyl)-3-methyl-2-oxo-benzimidazol-4-yl]-1-piperidyl]methyl]cyclobutyl]-6-methoxy-indazol-5-yl]-6-(trifluoromethyl)pyridine-2-carboxamide] | < 10 |
| Cn1c(=O)n(C2CCC(=O)NC2=O)c2ccc(Cl)c(C3CCN(C[C@H]4CC[C@H](n5cc6cc(NC(=O)c7cccc(C(F)(F)F)n7)ncc6n5)CC4)CC3)c21 (stereo partly drawn) [I-88] | 10 to 50 |
| COc1cc2nn([C@H]3C[C@H](CN4CCC(c5c(F)ccc6c5n(C)c(=O)n6C5CCC(=O)NC5=O)CC4)C3)cc2cc1NC(=O)c1cccc(C(F)(F)F)n1 (stereo partly drawn) [I-89] | 10 to 50 |
| Cn1c(=O)n(C2CCC(=O)NC2=O)c2cccc(C3CCN(C[C@H]4C[C@H](n5cc6cc(NC(=O)c7cccc(C(F)(F)F)n7)c(Cl)cc6n5)C4)CC3)c21 (stereo partly drawn) [I-90] | 10 to 50 |
| COc1cc2nn([C@H]3C[C@H](CN4CCC(c5cccc6c(N7CCC(=O)NC7=O)cncc56)CC4)C3)cc2cc1NC(=O)c1cccc(C(F)(F)F)n1 [I-91] | 10 to 50 |
| COc1cc2nn([C@H]3CC[C@H](CN(C)C4CCN(c5cccc6c5n(C)c(=O)n6C5CCC(=O)NC5=O)CC4)CC3)cc2cc1NC(=O)c1cncc(C(F)(F)F)c1 (stereo partly drawn) [I-92] | < 10 |
| COc1cc2nn([C@H]3CC[C@H](CN4CCC(c5cccc6c5n(C)c(=O)n6C5CCC(=O)NC5=O)CC4)CC3)cc2cc1NC(=O)c1cncc(Cl)c1 (stereo partly drawn) [I-93] | < 10 |
